Reference: patent US20140357688A1, “METHOD FOR INHIBITING EZH2 EXPRESSION IN BREAST CANCER CELLS” (Yung Shin Pharm. Ind. Co., Ltd., priority 2013, published 2014)

Assays:
Assay type in all cases: cell-based, human
[1] = tested on: MDA-MB-468 cells; assay: Cell cycle analysis by flow cytometry; details: 3 μM YC-1, 6 h post-treatment
Description: (A) Cells were treated with indicated concentration of YC-1 for 6, 24, and 48 h. Cell viability was determined by MTT method. (B) MDA-MB-468 cells were treated with 3 μM YC-1 for 0, 6, and 12 h, and then stained with fluorescence diacetate (FDA) and propidium iodide (PI). Cell morphology was assessed by fluorescence microscopy with magnification ×20 (upper 3 rows) or ×40 (lowest row). (C) MDA-MB-468 cells were treated with 3 μM YC-1 for 24 h, cells were lysed and subjected to western blot analysis described in Materials and Methods. β-actin is a loading control. Blots were representative of results from three independent experiments. (D) Cells were treated with vehicle (DMSO, as control) or 3 μM YC-1 for 6 h. The cell cycles were analyzed by flow cytometry. (E) Cells were treated with indicated concentration of YC-1 and then performed with clonogenic assay.
Cells (1×10^6) treated with YC-1 were fixed in cold 70% ethanol overnight. Cells were stained with staining solution (0.5% Triton X-100, 2 mg/ml propidium iodide, 1 mg/ml RNase A in 1×PBS), followed by analysis on a FACSCalibur flow cytometer (BD Biosciences, Mountain View, Calif., USA).

[2] = tested on: Ras; assay: Ras activation (Raf-RBD pull-down); details: 3 μM YC-1
Description: (A) Cells were pretreated with DMSO (as control), Bay-43-9006 (Bay, 10 μM), farnyesyl thiosalicylic acid (FTS, 10 μM), Src inhibitor I (SrcI, 10 μM), and genistein (Gen, 10 μM), then followed by YC-1 (3 μM) incubation for 6 h. Cells were harvested and lysed for western blot analysis (left, right) and cell viability (middle). The levels of protein expression were quantitated and shown under blots. (B) MDA-MB-468 cells were transfected with shRNA of Raf-1 or Src. After stimulation of 3 μM YC-1 for 4 h, cell protein was subjected to western blot analysis. (C) Cells were incubated with 3 μM YC-1 for indicated time and then lysed for detection of Src, Raf-1, and MEK activation by using specific anti-phosphorylated antibodies. (D) Cells were treated with 3 μM YC-1 for indicated time. Cells were lysed and detected Ras activation by using Raf-RBD conjugated agarose to pull-down Ras-GTP. The total Ras in cell lysate was also detected. […] Cells were lysed and protein expression was determined by western blot analysis. (F) Cells were induced by 3 μM YC-1 in the presence of indicated inhibitors. Cells were lysed and subjected to EZH2 ubiquitination assay.
Ras-GTP has a high affinity with Ras binding domain of Raf-1 (Raf-RBD). Accordingly, GST fusion protein containing Raf-RBD was applied to detect Ras activation. […]

[3] = tested on: ERK; assay: Western blot of ERK phosphorylation in MDA-MB-468 cells; details: 3 μM YC-1; beginning at 2 h, maximal at 6 h
Description: (A) Cells were pretreated with KT5720 (3 μM), KT5823 (3 μM), NS2028 (30 μM), or ODQ (30 μM) and then stimulated with YC-1 (3 μM) for 6 h. Cells were collected for measurement of protein expression (left) or cell viability (middle). After 3 days of PKA knockdown, cells were induced with 3 μM YC-1 for 4 h. Cells were harvested and analyzed using western blotting (right). The levels of protein expression were quantitated and shown under blots. […] Cells were collected and analyzed protein expression (left) and cells viability (middle). p44/42 MAPK knockdown cells were treated with 3 μM YC-1 for 4 h and then detected protein expression (left). (C) Cells were treated with 3 μM YC-1 for indicated time. Cells were harvested for detection of protein phosphorylated activation. […] Six hours later, cells were harvested for EZH2 ubiquitination assay. (E) Cells were induced by 3 μM YC-1 for 6 h in the presence of PD98059 or KT5720. Cells were collected for the determination of ERK phosphorylation. Cells were lysed in PBS containing proteinase inhibitor and phosphatase inhibitors and sonication. Protein concentration was measured using the Bio-Rad protein assay kit (Bio-Rad Laboratories, Hercules, Calif., USA). […] The band intensities were analyzed and quantified by the Multi Gauge software (Fuji Photo Film).

[4] = tested on: Hs578T; assay: MTT cell viability assay
Description: (§1) Human breast cancer cells, MDA-MB-468, MDA-MB-157, MDA-MB-231, MDA-MB-453, and Hs578T, and immortalized mammary epithelial cell lines, 184A1 and MCF-10A, were obtained from American Type Culture Collection (Manassas, Va., USA). MDA-MB-468, MDA-MB-157, MDA-MB-231, and MDA-MB-453 were cultured in DMEM/F12 medium supplemented with 10% FBS, 100 U/ml penicillin, and 100 μg/ml streptomycin. Hs578T was cultured in RPMI 1640 medium containing 10% FBS, 2 mM L-glutamine, 100 U/ml penicillin, and 100 μg/ml streptomycin. 184A1 and MCF-10A were cultured in DMEM/F12 medium supplemented with 5% horse serum, 0.5 μg/ml hydrocortisone, 10 μg/ml insulin, 20 ng/ml epidermal growth factor, 0.1 μg/ml cholera enterotoxin, 2 mM L-glutamine, 100 U/ml penicillin, and 100 μg/ml streptomycin. All cells were maintained in a humidified incubator containing 5% CO2. For hypoxia treatment, cells were incubated in a chamber flushed with 1% 02, 5% CO2, and 94% N2 at 37° C.
(§2) Cell viability was measured by 3-(4,5-Dimethyl-2-thiazolyl)2,5-diphenyl-2H-tetrazolium bromide (MTT) assay.

[5] = tested on: MDA-MB-453; assay: MTT cell viability assay
Description: as §1, §2

[6] = tested on: MDA-MB-231; assay: MTT cell viability assay; details: triple negative breast cancer cell line MDA-MB-231
Description: as §1, §2

[7] = tested on: MDA-MB-157; assay: MTT cell viability assay
Description: as §1, §2

OCc1ccc(-c2nn(Cc3ccccc3)c3ccccc23)o1 [YC-1, 3-(5′-hydroxymethyl-2′-furyl)-1-benzyl indazole]
sub-G1 population ([1]; control 5.9%): 13.5% | percentage of cells at the G1 phase ([1]; control 57.2%): 64.8% | Ras activation [2]: could not induce Ras activation | phosphorylated activation of ERK [3]: rapid phosphorylated activation | effect on cell viability [4]: no effect | effect on cell viability [5]: no effect | effect on cell viability [6]: slight inhibitory effect | effect on cell viability [7]: no effect
